From patent US11059808B2, “Substituted phenylpyrrolecarboxamides with therapeutic activity in HIV” (New York Blood Center, Inc., priority 2014, dated 2021) come the findings set out here.

What is called CC50 is the concentration at which the toxic effect on the cells reaches its halfway point. A higher CC50 goes with lower toxicity to the cells. The IC50 is the concentration that gives 50% inhibition. A low value points to greater potency in that assay.
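For IC50 in this document: endpoint is IC50 for inhibition of pseudovirus infection of TZM-bl cells.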

In the first data set the test system is TZM-bl cells. As to the kind of experiment: Cytotoxicity in TZM-bl cells (XTT). In kind it is cell-based. Conditions: XTT, 3 days. How it is done: (§1) The cytotoxicity of test compounds in TZM-bl cells was also measured by the XTT method described previously^7. […] The soluble intracellular formazan was quantitated colorimetrically at 450 nm 4 h later. The percent of cytotoxicity and the CC50 values were calculated as above. (See Table 4)
In general terms: Formazan colour is commonly taken as a measure of viable cells.
With `CNCC(NC(=O)c1ccc(-c2cc(F)c(Cl)c(F)c2)[nH]1)c1ncc(CO)s1` (single isomer, unassigned) [Compound 127], the CC50 was 13.9 ± 0.7 µM. Same read-out and setting: in the case of `CNCC(NC(=O)c1ccc(-c2cc(F)c(Cl)c(F)c2)[nH]1)c1ncc(CO)s1` (single isomer, unassigned) [Compound 128] it was 10.4 ± 0.8 µM; in that of `COc1ccc(-c2ccc(C(=O)NC(CN)c3ncc(CO)s3)[nH]2)cc1OC` (single isomer, unassigned) [Compound 130], greater than 74.5 µM.

Test system in a further data set: not listed separately
The experiment in a line: Cytotoxicity in TZM-bl cells (XTT). In kind it is cell-based. The following applies: human, XTT, 3 days. How it is done:
as §1
On to `Cc1nc(C(NC(=O)c2ccc(-c3ccc(Cl)c(F)c3)[nH]2)C2CCCCN2)sc1CO` (single isomer, unassigned) [Compound 20], for which it took 15.2 ± 0.2 µM to reach half-maximal cytotoxicity (CC50 at 3 days).

`Cc1ccc(-c2ccc(C(=O)NC(c3nc(C)c(CO)s3)C3CCCCN3)[nH]2)cc1F` (single isomer, unassigned) [Compound 22]: the CC50 at 3 days is no less than 36 µM. Consider `Cc1ccc(-c2ccc(C(=O)NC(c3nc(C)c(CCO)s3)C3CCCCN3)[nH]2)cc1F` (single isomer, unassigned) [Compound 24], for which the midpoint of cytotoxicity, the CC50 at 3 days, lay at 28.8 ± 1 µM. On the same count and under the same terms, in the case of `Cc1nc(C(NC(=O)c2ccc(-c3ccc(Cl)c(F)c3)[nH]2)C2CCCCN2)sc1CCO` (single isomer, unassigned) [Compound 26] it was 16.1 ± 0.2 µM; in that of `Cc1nc(C(NC(=O)c2ccc(-c3ccc(Cl)cc3)[nH]2)C2CCCCN2)sc1CCO` (single isomer, unassigned) [Compound 28], 17.3 ± 0.1 µM; in that of `Cc1ccc(-c2ccc(C(=O)NC(c3nc(C)c(CCCO)s3)C3CCCCN3)[nH]2)cc1F` (single isomer, unassigned) [Compound 30], 17 ± 0.7 µM.

For `Cc1nc(C(NC(=O)c2ccc(-c3ccc(Cl)c(F)c3)[nH]2)C2CCCCN2)sc1CCCO` (single isomer, unassigned) [Compound 31], the midpoint of cytotoxicity, the CC50 at 3 days, lay at 8.2 ± 0.3 µM. `Cc1nc(C(NC(=O)c2ccc(-c3ccc(Cl)cc3)[nH]2)C2CCCCN2)[nH]c1CO` (single isomer, unassigned) [Compound 33] had a CC50 at 3 days of 28 ± 0.5 µM. Same read-out and setting: in the case of `Cc1nc(C(NC(=O)c2ccc(-c3ccc(Cl)c(F)c3)[nH]2)C2CCCCN2)[nH]c1CO` (single isomer, unassigned) [Compound 35] it was 25 ± 0.5 µM; in that of `Cc1ccc(-c2ccc(C(=O)NC(c3nc(C)c(CO)[nH]3)C3CCCCN3)[nH]2)cc1F` (single isomer, unassigned) [Compound 37], 30 ± 0.3 µM; in that of `Cc1nc(C(CN)NC(=O)c2ccc(-c3ccc(Cl)cc3)[nH]2)sc1CO` (single isomer, unassigned) [Compound 39], no less than 34 µM. Same read-out and setting: the value for `Cc1ccc(-c2ccc(C(=O)NC(CN)c3nc(C)c(CO)s3)[nH]2)cc1F` (single isomer, unassigned) [Compound 43] was no less than 34 µM; that for `Cc1nc(C(CNC(=N)N)NC(=O)c2ccc(-c3ccc(Cl)cc3)[nH]2)sc1CO` (single isomer, unassigned) [Compound 45] was greater than 37 µM; that for `Cc1nc(C(CNC(=N)N)NC(=O)c2ccc(-c3ccc(Cl)c(F)c3)[nH]2)sc1CO` (single isomer, unassigned) [Compound 48] was greater than 36 µM. Still for that read-out and setting: the value for `Cc1ccc(-c2ccc(C(=O)NC(CNC(=N)N)c3nc(C)c(CO)s3)[nH]2)cc1F` (single isomer, unassigned) [Compound 49] was greater than 37 µM; that for `Cc1nc(C(CN)NC(=O)c2ccc(-c3ccc(Cl)c(F)c3)[nH]2)sc1CO` (single isomer, unassigned) [Compound 51] was roughly 28 µM; that for `CNCC(NC(=O)c1ccc(-c2ccc(Cl)cc2)[nH]1)c1nc(C)c(CO)s1` (single isomer, unassigned) [Compound 58] was roughly 37 µM. `CC(=O)NCC(NC(=O)c1ccc(-c2ccc(Cl)c(F)c2)[nH]1)c1nc(C)c(COC(C)=O)s1` (single isomer, unassigned) [Compound 66] registered a CC50 at 3 days greater than 40 µM.

For the next data set, the system named is HIV-1 pseudovirus pseudotyped with HXB2 Env. The experiment in a line: microbe, parasite or virus in culture. In kind it is cell-based. The following applies: Human immunodeficiency virus 1, HXB2, TZM-bl, single cycle assay, TZM-bl cells infected with HIV-1 pseudovirus pseudotyped with HXB2 Env.
`CNCC(NC(=O)c1ccc(-c2cc(F)c(Cl)c(F)c2)[nH]1)c1ncc(CO)s1` (single isomer, unassigned) [Compound 127]: 0.42 ± 0.2 µM corresponded to half-maximal inhibition (IC50).

The same data set, now with this note: single cycle assay, TZM-bl cells infected with HIV-1 pseudovirus pseudotyped with HXB2 Env.
`CNCC(NC(=O)c1ccc(-c2cc(F)c(Cl)c(F)c2)[nH]1)c1ncc(CO)s1` (single isomer, unassigned) [Compound 128] yielded a half-inhibitory concentration (IC50) of 0.36 ± 0.04 µM.

In turn, `COc1ccc(-c2ccc(C(=O)NC(CN)c3ncc(CO)s3)[nH]2)cc1OC` (single isomer, unassigned) [Compound 130] came in with an IC50 greater than 74.5 µM.
